# Assays:
# [1] = Solubility Assay (UV/vis spectroscopy, filter method); settings: 1 × PBS pH 7.4, 500 μM, UV/vis 280–360 nm minus 800 nm
# [2] = test system: synchronized Plasmodium falciparum parasites; experiment: Microscopical study of cell morphology after 8-h exposures (Figure S4); type: cell-based; settings: 3× the IC50^8h of the most sensitive life stage, 8-h intervals
Structure (SMILES),Ratio fil./std. (absorbance filtrate/standard) [1],digestive vacuole morphology [2],most susceptible stage by cell morphology [2]
CC(C)(C)c1ccc2c(c1)CN(Cc1ccc(Cl)cc1)CO2 [MMV000442],0.74,–,–
CN(C)Cc1ccc(-c2cc3c(-c4ccc(CN(C)C)cc4)ccnc3[nH]2)cc1.O=C(O)C(F)(F)F [MMV022224],–,without displaying swollen vacuoles,early and late trophozoite stages

# Source: PMC7031696 (Cell chemical biology, 2019)
